The values that follow come from PubChem BioAssay (NCI).

Some test systems named below: MALME-3M melanoma; IGROV1 ovarian; SW-620 colon; COLO 205 colon; MOLT-4 leukemia; SN12C renal; OVCAR-3 ovarian; UO-31 renal; CCRF-CEM leukemia; SK-MEL-5 melanoma; NCI-H226 lung.
Holding throughout (assay): growth of human tumour cells (NCI), 48 h

SMILES strings stand for the structures.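 Interpolation was linear, between the two tested concentrations surrounding the appropriate level; five concentrations were tested over 48 hours in 96-well plates. GI50 = concentration required for 50% inhibition of growth. TGI marks complete inhibition of growth.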

On to `Cc1ccc(Nc2nc(=O)c3c([nH]c4ccccc43)s2)cc1`, for which the TGI with MALME-3M melanoma is 26.8 µM; in the assay on IGROV1 ovarian, 35.1 µM; in the assay on SW-620 colon it was 24.3 µM; with COLO 205 colon, 24.7 µM; with MOLT-4 leukemia it was greater than 100 µM; in the assay with SN12C renal, 31.6 µM. The TGI in the assay on OVCAR-3 ovarian turned out to be 27.3 µM; in the assay with UO-31 renal, 7.32 µM; in the assay on CCRF-CEM leukemia, 53.3 µM; in the assay with SK-MEL-5 melanoma it was 20.8 µM.
`CSCC(CO)NC(=O)/C=C/c1c(C)[nH]c(=O)[nH]c1=O` (centres undefined): the TGI is greater than 875 µM in the assay on MALME-3M melanoma; greater than 875 µM in the assay on IGROV1 ovarian; greater than 492 µM in the assay with SW-620 colon; greater than 775 µM in the assay with COLO 205 colon; greater than 875 µM with MOLT-4 leukemia; greater than 875 µM in the assay with SN12C renal. Besides, the TGI with OVCAR-3 ovarian was 444 µM; with UO-31 renal, greater than 875 µM; in the assay with CCRF-CEM leukemia, greater than 875 µM; with NCI-H226 lung, greater than 875 µM; in the assay on SK-MEL-5 melanoma, greater than 875 µM.
`CC(=O)OC1CC(OC2C(O)CC(OC3C(O)CC(OC4CCC5(C)C(CCC6C5CCC5(C)C(C7=CC(=O)OC7)CCC65O)C4)OC3C)OC2C)OC(C)C1OC1OC(CO)C(O)C(O)C1O` (centres undefined): the TGI in the assay on MALME-3M melanoma is 0.112 µM; in the assay on IGROV1 ovarian, 0.289 µM; in the assay on SW-620 colon it was 0.148 µM; with COLO 205 colon, 0.168 µM; with MOLT-4 leukemia, greater than 100 µM; in the assay with SN12C renal it was 0.286 µM. Besides, the TGI was 0.0883 µM in the assay with OVCAR-3 ovarian; 0.13 µM with UO-31 renal; greater than 100 µM in the assay with CCRF-CEM leukemia; 0.241 µM in the assay on NCI-H226 lung; 0.107 µM with SK-MEL-5 melanoma.
As for `O=C(Sc1n[nH]c(=O)[nH]c1=O)c1cccc2nc3ccccc3nc12`, the TGI in the assay with MALME-3M melanoma was 24.8 µM; in the assay on IGROV1 ovarian, greater than 100 µM; in the assay with SW-620 colon, greater than 100 µM; with COLO 205 colon it was 5.76 µM; with MOLT-4 leukemia it was greater than 100 µM; with SN12C renal, greater than 100 µM. Besides, the TGI in the assay on OVCAR-3 ovarian is greater than 100 µM; in the assay on CCRF-CEM leukemia, greater than 100 µM; in the assay with NCI-H226 lung it was greater than 100 µM; with SK-MEL-5 melanoma, 14.5 µM.
For the compound `CN(C)c1cccc(OC(=O)NCCCl)c1`, the GI50 was greater than 100 µM with MALME-3M melanoma and 94.6 µM in the assay with CCRF-CEM leukemia. Besides, the TGI in the assay with MALME-3M melanoma, in the assay with IGROV1 ovarian, in the assay with SW-620 colon, in the assay on COLO 205 colon, in the assay with MOLT-4 leukemia and in the assay with SN12C renal was greater than 100 µM in each case. The TGI in the assay with OVCAR-3 ovarian, in the assay on UO-31 renal, in the assay on CCRF-CEM leukemia, with NCI-H226 lung and in the assay on SK-MEL-5 melanoma was greater than 100 µM throughout.
Consider `S=c1[nH]n2c(COc3ccc(Cl)cc3)nnc2s1`, for which the TGI with MALME-3M melanoma, in the assay with IGROV1 ovarian, with SW-620 colon, with COLO 205 colon, with MOLT-4 leukemia and in the assay on SN12C renal was greater than 100 µM each time. Besides, the TGI in the assay with OVCAR-3 ovarian, in the assay with UO-31 renal, with NCI-H226 lung and in the assay on SK-MEL-5 melanoma was greater than 100 µM each time.
As to `CC1(C)N=C(c2ccccc2)SC12S[C@@H]1CCCC[C@H]1S2`, the TGI with MALME-3M melanoma, with IGROV1 ovarian, in the assay on SW-620 colon, in the assay with COLO 205 colon, in the assay with MOLT-4 leukemia and in the assay with SN12C renal was greater than 100 µM in each case. The TGI with OVCAR-3 ovarian was greater than 100 µM; in the assay with UO-31 renal, greater than 100 µM; in the assay with CCRF-CEM leukemia, greater than 100 µM; with NCI-H226 lung it was greater than 100 µM; in the assay with SK-MEL-5 melanoma, 54.5 µM.
Consider `O=S(O)CCCSSSCCCS(=O)O`, for which the TGI in the assay on MALME-3M melanoma, in the assay on MOLT-4 leukemia, with SN12C renal, in the assay on OVCAR-3 ovarian, in the assay on UO-31 renal and with CCRF-CEM leukemia was greater than 100 µM each time.
In the case of `CO/C=C1\OC(=O)C=C1OC`, the TGI in the assay on MALME-3M melanoma, in the assay with IGROV1 ovarian, in the assay on SW-620 colon, in the assay on COLO 205 colon, in the assay on MOLT-4 leukemia and with SN12C renal was greater than 100 µM throughout. In addition, the TGI in the assay on OVCAR-3 ovarian, with UO-31 renal, with CCRF-CEM leukemia, with NCI-H226 lung and in the assay with SK-MEL-5 melanoma was greater than 100 µM throughout.
With `c1ccc2c(c1)SP1Sc3ccccc3P21` (centres undefined), the TGI with MALME-3M melanoma, in the assay with IGROV1 ovarian, in the assay on SW-620 colon, in the assay with COLO 205 colon, in the assay on MOLT-4 leukemia and in the assay on SN12C renal was greater than 100 µM in each case. In addition, the TGI was greater than 100 µM in the assay on OVCAR-3 ovarian; greater than 100 µM in the assay with UO-31 renal; greater than 100 µM in the assay with CCRF-CEM leukemia; greater than 66.6 µM with NCI-H226 lung; greater than 100 µM with SK-MEL-5 melanoma.
For `Cc1cccc2c1Sc1ccccc1C2NC(=O)CN(C)C` (centres undefined), the TGI in the assay on IGROV1 ovarian, in the assay with SW-620 colon, in the assay on COLO 205 colon, in the assay with MOLT-4 leukemia, with SN12C renal and with UO-31 renal was greater than 100 µM throughout. For the same compound, the TGI in the assay with CCRF-CEM leukemia, in the assay with NCI-H226 lung and with SK-MEL-5 melanoma was greater than 100 µM throughout.
For the compound `c1csc(-c2ccc(CNc3c4ccccc4nc4ccccc34)cc2)c1`, the GI50 in the assay with MOLT-4 leukemia was 1.32 µM; in the assay with SN12C renal, 9.15 µM; in the assay on OVCAR-3 ovarian it was 1.58 µM; with UO-31 renal it was 1.19 µM; in the assay with CCRF-CEM leukemia, 1.28 µM; in the assay on NCI-H226 lung, 5.57 µM. Further, the GI50 with SK-MEL-5 melanoma is 1.63 µM. In addition, the TGI in the assay on MOLT-4 leukemia worked out at 3.74 µM; in the assay on SN12C renal, 28.8 µM; in the assay with OVCAR-3 ovarian, 2.97 µM; in the assay with UO-31 renal it was 2.57 µM; with CCRF-CEM leukemia, 3.91 µM; in the assay on NCI-H226 lung, 38.6 µM. In addition, the TGI with SK-MEL-5 melanoma stood at 3.01 µM.
Turning to `CN(c1ccccc1)c1nc(=[N+]2CCCC2)ss1`, the TGI in the assay on MALME-3M melanoma, with IGROV1 ovarian, in the assay with SW-620 colon, with COLO 205 colon, in the assay with MOLT-4 leukemia and with SN12C renal was greater than 100 µM each time. For the same compound, the TGI in the assay on OVCAR-3 ovarian, with UO-31 renal, with CCRF-CEM leukemia, in the assay on NCI-H226 lung and in the assay with SK-MEL-5 melanoma was greater than 100 µM each time.
With `NNC(=O)CCc1ccc2ccc3ccccc3c2c1`, the TGI with MALME-3M melanoma, in the assay on IGROV1 ovarian, in the assay with SW-620 colon, in the assay on COLO 205 colon, with MOLT-4 leukemia and in the assay with SN12C renal was greater than 100 µM throughout. In addition, the TGI in the assay on OVCAR-3 ovarian, in the assay on UO-31 renal, in the assay with CCRF-CEM leukemia, with NCI-H226 lung and in the assay with SK-MEL-5 melanoma was greater than 100 µM each time.
